System: FcγRIII signaling
Experiment: FcγRIII signaling inhibitor assay: IgG2a-complex stimulated DC18 C10 cells, hTNFα promoter-luciferase reporter
Format: cell-based, mouse
Conditions: DC18 C10 cells stimulated with IgG2a complexes; inhibitor at its described IC50 concentration; FIG. 3
Method: Cells are transfected by electroporation at optimised conditions (200V, 960 pF) with a TNFα promoter—luciferase—TNFα 3′ end construct and plated in 10 ml of medium immediately after electroporation and purified by Lymphoprep the next day. 1×10^4 viable cells per well are plated in 96 well microtiter plates in 100 μl of medium each plus 250 μg/ml of geneticin (G418). Two days later 100 μl of fresh medium are added. Every second day 100 μl of medium are removed and substituted by 100 μl of fresh medium. Stable clones are selected by conventional cell culture methods and single cell cloning. […] The best responder is subjected to one round of further limited dilution cloning (single cell cloning) and named DC18 clone10 (=DC18 C10). This clone is selected for all further studies.
1×10^4 cells are seeded in 50 μl medium per well (Optiplate, Packard). Incubation with candidate compounds is done for 45 minutes prior to stimulation with 5 μg/ml of murine IgG of different subtypes complexed either with 10 μg/ml of DNP-BSA or 30 μg/ml of rabbit anti mouse Ig F(ab′)2 fragments. Stimulation is carried on for further 4 hours. Subsequently 13 μl of a 5 times concentrated reporter lysis buffer (Promega) are added and cells are lysed by freeze-(−80°) thaw cycle. For the readout 50 μl of luciferase substrate (Promega) are added and luciferase activity is measured in a MicroBetaJet (Wallac). […]

Compound: O=c1cc(-c2ccc(O)cc2)oc2cc(O)cc(O)c12 [Apigenin]
- inhibition of IgG2a complexes-provoked luciferase induction (readout): inhibits IgG2a complexes-provoked luciferase induction

— patent US20050181457A1, “FcyrIII signaling inhibitor assay” (priority 2002, published 2005)
